Data as given in US8586588B2, “Aryl pyridazinone derivatives and their use as H3 receptor ligands” (Cephalon, Inc., priority 2006, dated 2013).
Where two headings read alike, the source gives them in different places.

Key:
[1] = target: T1, rat histamine H3 receptor (Rattus norvegicus, UniProt Q9QYN8); experiment: Rat H3 radioligand binding ([3H]-N-alpha-methylhistamine, CHO-A3 cell membranes, SPA)
T1 construct: encoding the entire 445-amino-acid rat histamine H3 receptor; expressed in transfected cells
T1 sequence (Q9QYN8 whole entry): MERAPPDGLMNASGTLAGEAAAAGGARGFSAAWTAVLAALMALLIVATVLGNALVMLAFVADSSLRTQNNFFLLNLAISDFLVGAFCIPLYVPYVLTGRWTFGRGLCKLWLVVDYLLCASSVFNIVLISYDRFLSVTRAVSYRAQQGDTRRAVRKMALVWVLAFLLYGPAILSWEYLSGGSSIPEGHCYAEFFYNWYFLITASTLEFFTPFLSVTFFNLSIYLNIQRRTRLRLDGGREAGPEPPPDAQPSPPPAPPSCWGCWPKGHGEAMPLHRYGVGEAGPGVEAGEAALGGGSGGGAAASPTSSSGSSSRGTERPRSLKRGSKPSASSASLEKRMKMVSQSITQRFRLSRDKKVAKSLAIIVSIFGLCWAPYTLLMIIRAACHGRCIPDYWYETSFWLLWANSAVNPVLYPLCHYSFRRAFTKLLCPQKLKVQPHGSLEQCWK
Protocol: (§1) This was engineered into the pIRES-neo3 mammalian expression vector, which was stably transfected into the CHO-A3 cell line (Euroscreen, Belgium), followed by clonal selection by limiting dilution. Cells were harvested and cell pellets were frozen (−80° C.). Cell pellets were resuspended in 5 mM Tris-HCl, pH 7.5 with […] and a cocktail of protease inhibitors (Complete Protease Inhibition Tablets, Roche Diagnostics). Cells were disrupted using a polytron cell homogenizer and the suspension was centrifuged at 1000×g for 10 minutes at 4° C. The pellet was discarded and the supernatant centrifuged at 40,000×g for 30 min at 4° C. This membrane pellet was washed in membrane buffer containing 50 mM Tris-HCl, pH 7.5 with 0.6 mM EDTA, 5 mM MgCl2 and protease inhibitors, recentrifuged as above and the final pellet resuspended in membrane buffer plus 250 mM sucrose and frozen at −80° C.
(§2) Membranes were resuspended in 50 mM Tris HCl (pH 7.4), 5 mM MgCl2, 0.1% BSA. The membrane suspensions (10 μg protein per well) were incubated in a 96 well microtiter plate with [^3H]-N-alpha-methylhistamine (approximately 1 nM final concentration), test compounds at various concentrations (0.01 nM-30 μM) and scintillation proximity beads (Perkin Elmer, FlashBlueGPCR Scintillating Beads) in a final volume of 80 μl for 4 hours at room temperature, protected from light. Non-specific binding was determined in the presence of 10 μM clobenpropit. Radioligand bound to receptor, and therefore in proximity to the scintillation beads, was measured using a MicroBeta scintillation counter.

human H3 receptor = target: T2, human H3 receptor (Homo sapiens, UniProt Q9Y5N1); experiment: Human H3 radioligand binding ([3H]-N-alpha-methylhistamine, CHO cell membranes, SPA); details: binding constant as letter class
T2 construct: expressed in transfected cells
T2 sequence (Q9Y5N1 whole entry): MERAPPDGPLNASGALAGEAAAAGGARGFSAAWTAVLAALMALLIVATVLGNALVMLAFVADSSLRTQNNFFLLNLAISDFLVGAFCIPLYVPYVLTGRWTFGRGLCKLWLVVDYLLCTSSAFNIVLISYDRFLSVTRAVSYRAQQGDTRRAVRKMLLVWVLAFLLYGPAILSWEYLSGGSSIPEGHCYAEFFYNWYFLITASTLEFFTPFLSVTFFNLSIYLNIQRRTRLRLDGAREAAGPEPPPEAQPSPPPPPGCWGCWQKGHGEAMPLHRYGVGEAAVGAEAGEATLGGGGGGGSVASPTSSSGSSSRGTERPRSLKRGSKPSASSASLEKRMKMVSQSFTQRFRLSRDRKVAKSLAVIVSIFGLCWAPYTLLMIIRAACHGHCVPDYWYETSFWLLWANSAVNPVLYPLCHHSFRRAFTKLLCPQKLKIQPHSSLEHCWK
Protocol: as §1, with “Cell” for “This was engineered into the pIRES-neo3 mammalian expression vector, which was stably transfected into the CHO-A3 cell line (Euroscreen, Belgium), followed by clonal selection by limiting dilution. Cells were harvested and cell pellets were frozen (−80° C.). Cell”
as §2

[2] = Table B, binding constant as letter class, read-out: rat H3 Ki
[3] = Table A, binding constant as letter class, read-out: Rat H3 Ki

SMILES | Ki [1, 2] | Ki (human H3 receptor; Table B) | Ki [1] | Ki [1, 3] | Ki (human H3 receptor; Table A)
Cc1cc(OCCCN2CCC[C@H]2C)ccc1-c1cn[nH]c(=O)c1 [Example 231, 5-{2-methyl-4-[3-((R)-2-methyl-pyrrolidin-1-yl)-propoxyl]-phenyl}-2H-pyridazin-3-one] | 0.1 to 100 nM | 0.1 to 100 nM |  |  | 
COc1cn[nH]c(=O)c1-c1ccc(OCCCN2CCC[C@H]2C)cc1 [Example 237, 5-Methoxy-4-{4-[3-((R)-2-methyl-pyrrolidin-1-yl)-propoxy]-phenyl}-2H-pyridazin-3-one] | 0.1 to 100 nM | 0.1 to 100 nM |  |  | 
C[C@@H]1CCCN1CCCOc1ccc(-c2cnn(C)c(=O)c2)cc1 [Example 91, 2-Methyl-5-{4-[3-((R)-2-methyl-pyrrolidin-1-yl)-propoxy]-phenyl}-2H-pyridazin-3-one] | 0.1 to 100 nM | 0.1 to 100 nM |  |  | 
C[C@@H]1CCCN1CCCOc1ccc(-c2ccc(=O)n(C)n2)cc1Cl [Example 85, 6-{3-Chloro-4-[3-((R)-2-methyl-pyrrolidin-1-yl)-propoxy]-phenyl}-2-methyl-2H-pyridazin-3-one] | 0.1 to 100 nM | 0.1 to 100 nM |  |  | 
CC1(C)CC(c2ccc(OC3CCN(C4CCC4)CC3)nc2)=NNC1=O [Example 148, 6-[6-(1-Cyclobutyl-piperidin-4-yloxy)-pyridin-3-yl]-4,4-dimethyl-4,5-dihydro-2H-pyridazin-3-one] | 0.1 to 100 nM | 0.1 to 100 nM |  |  | 
Cc1cc(OCCCN2CCC[C@H]2C)ccc1C1=NNC(=O)CC1 [Example 199, 6-{(R)-2-Methyl-4-[3-(2-methyl-pyrrolidin-1-yl)-propoxy]-phenyl}-4,5-dihydro-2H-pyridazin-3-one] | 0.1 to 100 nM | 0.1 to 100 nM |  |  | 
CC1CC(=O)NN=C1c1ccc(OCCCN2CCC[C@H]2C)cc1 (mixture of isomers) [Example 194, 5-Methyl-6-{4-[3-((R)-2-methyl-pyrrolidin-1-yl)-propoxy]-phenyl}-4,5-dihydro-2H-pyridazin-3-one] | 0.1 to 100 nM | 0.1 to 100 nM |  |  | 
C[C@@H]1CCCN1CCCOc1ccc(C2=NN(c3ccccn3)C(=O)CC2)cc1 [Example 183, 6-{4-[3-((R)-2-Methyl-pyrrolidin-1-yl)-propoxy]-phenyl}-2-pyridin-2-yl-4,5-dihydro-2H-pyridazin-3-one] | 0.1 to 100 nM | 0.1 to 100 nM |  |  | 
Cc1cc(-c2ccc(OCCCN3CCC[C@H]3C)cc2)n[nH]c1=O [Example 122, 4-Methyl-6-{4-[3-((R)-2-methyl-pyrrolidin-1-yl)-propoxy]-phenyl}-2H-pyridazin-3-one] | 0.1 to 100 nM | 0.1 to 100 nM |  |  | 
CN1N=C(c2ccc(OC3CCN(C4CCC4)CC3)cc2)C2CC2C1=O (stereo not shown) [Example 252, 5-[4-(1-Cyclobutyl-piperidin-4-yloxy)-phenyl]-3-methyl-3,4-diaza-bicyclo[4.1.0]hept-4-en-2-one] | 0.1 to 100 nM | 0.1 to 100 nM |  |  | 
Cn1ncc(-c2ccc(OCCCN3CCCCC3)cc2)cc1=O [Example 92, 2-Methyl-5-[4-(3-piperidin-1-yl-propoxy)-phenyl]-2H-pyridazin-3-one] | 0.1 to 100 nM | 0.1 to 100 nM |  |  | 
CC(C)n1ncc(-c2ccc(OCCCN3CCC[C@H]3C)cc2)cc1=O [Example 128, 2-Isopropyl-5-{4-[3-((R)-2-methyl-pyrrolidin-1-yl)-propoxy]-phenyl}-2H-pyridazin-3-one] | 0.1 to 100 nM | 0.1 to 100 nM |  |  | 
O=C1NN=C(c2ccc(OC3CCN(C4CCC4)CC3)cc2)C2CC12 (single isomer, unassigned) [Example 249, 5-[4-(1-Cyclobutyl-piperidin-4-yloxy)-phenyl]-3,4-diaza-bicyclo[4.1.0]hept-4-en-2-one] | 0.1 to 100 nM | 0.1 to 100 nM |  |  | 
C[C@@H]1CC(=O)NN=C1c1ccc(OC2CCN(C3CCC3)CC2)cc1 [Example 190, (R)-6-[4-(1-Cyclobutyl-piperidin-4-yloxy)-phenyl]-5-methyl-4,5-dihydro-2H-pyridazin-3-one] |  |  | 0.1 to 100 nM |  | 
Cn1nc(-c2ccc(OCCCN3CCC[C@H]3CO)cc2)c2c(c1=O)CCCC2 [Example 124, 4-{4-[3-((S)-2-Hydroxymethyl-pyrrolidin-1-yl)-propoxy]-phenyl}-2-methyl-5,6,7,8-tetrahydro-2H-phthalazin-1-one] | 0.1 to 100 nM | 0.1 to 100 nM |  |  | 
Cc1nn(-c2ccccn2)c(=O)cc1-c1ccc(OC2CCN(C3CCC3)CC2)cc1 [Example 104, 5-[4-(1-Cyclobutyl-piperidin-4-yloxy)-phenyl]-6-methyl-2-pyridin-2-yl-2H-pyridazin-3-one] | 0.1 to 100 nM | 0.1 to 100 nM |  |  | 

SMILES | Ki [1, 2] | Ki (human H3 receptor; Table B) | Ki [1] | Ki [1, 3] | Ki (human H3 receptor; Table A)
O=C1C2CC2C(c2ccc(OC3CCN(C4CCC4)CC3)cc2)=NN1CC(F)(F)F (stereo not shown) [Example 254, 5-[4-(1-Cyclobutyl-piperidin-4-yloxy)-phenyl]-3-(2,2,2-trifluoro-ethyl)-3,4-diaza-bicyclo[4.1.0]hept-4-en-2-one] | 0.1 to 100 nM | 0.1 to 100 nM |  |  | 
Cc1cc(-c2ccc(OCCCN3CCCCC3)cc2)nn(C(C)C)c1=O [Example 42, 2-Isopropyl-4-methyl-6-[4-(3-piperidin-1-yl-propoxy)-phenyl]-2H-pyridazin-3-one] |  |  |  | 101 to 500 nM | 101 to 500 nM
O=c1cc(-c2ccc(OCCCN3CCCCC3)cc2)cnn1-c1ccccn1 [Example 95, 5-[4-(3-Piperidin-1-yl-propoxy)-phenyl]-2-pyridin-2-yl-2H-pyridazin-3-one] | 0.1 to 100 nM | 0.1 to 100 nM |  |  | 
Cc1cc(-c2ccc(OCCCN3CCCCC3)cc2)n[nH]c1=O [Example 123, 4-Methyl-6-[4-(3-piperidin-1-yl-propoxy)-phenyl]-2H-pyridazin-3-one] | 0.1 to 100 nM | 0.1 to 100 nM |  |  | 
C[C@@H]1CCCN1CCCOc1ccc(-c2nn(Cc3ccc(Cl)cc3)c(=O)c3ccsc23)cc1 [Example 38, 5-(4-Chloro-benzyl)-7-{4-[3-((R)-2-methyl-pyrrolidin-1-yl)-propoxy]-phenyl}-5H-thieno[2,3-d]pyridazin-4-one] |  |  |  | 0.1 to 100 nM | 0.1 to 100 nM
O=C1CC(c2ccccn2)C(c2ccc(OC3CCNCC3)cc2)=NN1 (stereo not shown) [Example 113, 6-[4-(Piperidin-4-yloxy)-phenyl]-5-pyridin-2-yl-4,5-dihydro-2H-pyridazin-3-one] | > 1000 nM | > 1000 nM |  |  | 
COCn1ncc(-c2ccc(OCCCN3CCC[C@H]3C)cc2C)cc1=O [Example 230, 2-Methoxymethyl-5-{2-methyl-4-[3-((R)-2-methyl-pyrrolidin-1-yl)-propoxyl]-phenyl}-2H-pyridazin-3-one] | 0.1 to 100 nM | 0.1 to 100 nM |  |  | 
Cn1nc(-c2ccc(OCC3CCN(CC4CC4)CC3)cc2)ccc1=O [Example 69, 6-[4-(1-Cyclopropylmethyl-piperidin-4-ylmethoxy)-phenyl]-2-methyl-2H-pyridazin-3-one] |  |  |  | > 1000 nM | 101 to 500 nM
CC1CC(=O)N(c2ccccn2)N=C1c1ccc(OC2CCN(C3CCC3)CC2)cc1 (stereo not shown) [Example 193, 6-[4-(1-Cyclobutyl-piperidin-4-yloxy)-phenyl]-5-methyl-2-pyridin-2-yl-4,5-dihydro-2H-pyridazin-3-one] | 0.1 to 100 nM | 0.1 to 100 nM |  |  | 
CC(C)n1nc(-c2ccc(OCCCN3CCC[C@H]3C)cc2)ccc1=O [Example 5, 2-Isopropyl-6-{4-[3-((R)-2-methyl-pyrrolidin-1-yl)-propoxy]-phenyl}-2H-pyridazin-3-one] |  |  |  | 0.1 to 100 nM | 0.1 to 100 nM
C[C@@H]1CCCN1CCCOc1ccc(-c2nn(C)c(=O)cc2-c2ccccc2)cc1 [Example 47, 2-Methyl-6-{4-[3-((R)-2-methyl-pyrrolidin-1-yl)-propoxy]-phenyl}-5-phenyl-2H-pyridazin-3-one] |  |  |  | 0.1 to 100 nM | 0.1 to 100 nM
C[C@H]1CC(=O)NN=C1c1ccc(OC2CCN(C3CCC3)CC2)cc1 [Example 191, (S)-6-[4-(1-Cyclobutyl-piperidin-4-yloxy)-phenyl]-5-methyl-4,5-dihydro-2H-pyridazin-3-one] |  |  | 0.1 to 100 nM |  | 
C[C@@H]1CCCN1CCCOc1ccc(-c2n[nH]c(=O)cc2-c2ccccn2)cc1 [Example 112, 6-{4-[3-((R)-2-Methyl-pyrrolidin-1-yl)-propoxy]-phenyl}-5-pyridin-2-yl-2H-pyridazin-3-one] |  | 0.1 to 100 nM |  |  | 
C[C@@H]1CCCN1CCCOc1ccc(C2=NNC(=O)C3CC23)cc1 (single isomer, unassigned) [Example 247] | 0.1 to 100 nM |  |  |  | 
Cn1nc(-c2ccc(OCCCN3CCC[C@@H]3CO)cc2)ccc1=O [Example 15, 6-{4-[3-((R)-2-Hydroxymethyl-pyrrolidin-1-yl)-propoxy]-phenyl}-2-methyl-2H-pyridazin-3-one] |  |  | 501 to 1000 nM |  | 
Cn1nc(-c2ccc(OCCCN3CCC[C@H]3CO)cc2)ccc1=O [Example 14, 6-{4-[3-((S)-2-Hydroxymethyl-pyrrolidin-1-yl)-propoxy]-phenyl}-2-methyl-2H-pyridazin-3-one] |  |  | 0.1 to 100 nM |  | 
